According to PubChem BioAssay (NCI):
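How tested: cells in 96-well plates exposed to compound for 48 hours at five concentrations. GI50: concentration for 50% inhibition of growth. At the TGI there is no net growth.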

What was measured:
Experiment in all cases: DTP human tumour cell line panel, 48 h
NCI-H23 lung = test system: NCI-H23 lung
NCI-H460 lung = test system: NCI-H460 lung
NCI-H522 lung = test system: NCI-H522 lung
NCI/ADR-RES ovarian = test system: NCI/ADR-RES ovarian
OVCAR-3 ovarian = test system: OVCAR-3 ovarian
OVCAR-4 ovarian = test system: OVCAR-4 ovarian
OVCAR-5 ovarian = test system: OVCAR-5 ovarian
OVCAR-8 ovarian = test system: OVCAR-8 ovarian
PC-3 prostate = test system: PC-3 prostate
RPMI-8226 leukemia = test system: RPMI-8226 leukemia
RXF 393 renal = test system: RXF 393 renal
SF-268 CNS = test system: SF-268 CNS
SF-295 CNS = test system: SF-295 CNS
SF-539 CNS = test system: SF-539 CNS
SK-MEL-2 melanoma = test system: SK-MEL-2 melanoma
SK-MEL-28 melanoma = test system: SK-MEL-28 melanoma
SK-MEL-5 melanoma = test system: SK-MEL-5 melanoma
SK-OV-3 ovarian = test system: SK-OV-3 ovarian
SN12C renal = test system: SN12C renal
SNB-19 CNS = test system: SNB-19 CNS
SNB-75 CNS = test system: SNB-75 CNS
SR leukemia = test system: SR leukemia
SW-620 colon = test system: SW-620 colon
T-47D breast = test system: T-47D breast
TK-10 renal = test system: TK-10 renal
U251 CNS = test system: U251 CNS
UACC-257 melanoma = test system: UACC-257 melanoma
UACC-62 melanoma = test system: UACC-62 melanoma
UO-31 renal = test system: UO-31 renal

CCOc1ccc(C(=O)Nc2ncc(Cc3ccc(F)cc3)s2)cc1
GI50 (NCI-H23 lung): 466 nM
TGI (NCI-H23 lung): > 100000 nM
GI50 (NCI-H460 lung): 113 nM
TGI (NCI-H460 lung): > 100000 nM
GI50 (NCI-H522 lung): 78.1 nM
TGI (NCI-H522 lung): 375 nM
GI50 (NCI/ADR-RES ovarian): 117 nM
TGI (NCI/ADR-RES ovarian): > 100000 nM
GI50 (OVCAR-3 ovarian): 162 nM
TGI (OVCAR-3 ovarian): > 22200 nM
GI50 (OVCAR-4 ovarian): 1630 nM
TGI (OVCAR-4 ovarian): > 100000 nM
GI50 (OVCAR-5 ovarian): 387 nM
TGI (OVCAR-5 ovarian): > 100000 nM
GI50 (OVCAR-8 ovarian): 376 nM
TGI (OVCAR-8 ovarian): > 52300 nM
GI50 (PC-3 prostate): 169 nM
TGI (PC-3 prostate): > 100000 nM
GI50 (RPMI-8226 leukemia): 157 nM
TGI (RPMI-8226 leukemia): > 100000 nM
GI50 (RXF 393 renal): 151 nM
TGI (RXF 393 renal): 672 nM
GI50 (SF-268 CNS): 4610 nM
TGI (SF-268 CNS): > 91900 nM
GI50 (SF-295 CNS): 144 nM
TGI (SF-295 CNS): > 33000 nM
GI50 (SF-539 CNS): 161 nM
TGI (SF-539 CNS): 2750 nM
GI50 (SK-MEL-2 melanoma): 117 nM
GI50 (SK-MEL-28 melanoma): 1230 nM
TGI (SK-MEL-28 melanoma): > 100000 nM
GI50 (SK-MEL-5 melanoma): 322 nM
TGI (SK-MEL-5 melanoma): > 100000 nM
GI50 (SK-OV-3 ovarian): 289 nM
TGI (SK-OV-3 ovarian): > 64900 nM
GI50 (SN12C renal): 345 nM
TGI (SN12C renal): > 100000 nM
GI50 (SNB-19 CNS): 402 nM
TGI (SNB-19 CNS): > 100000 nM
GI50 (SNB-75 CNS): 69.3 nM
TGI (SNB-75 CNS): 3440 nM
GI50 (SR leukemia): 34.4 nM
TGI (SR leukemia): > 100000 nM
GI50 (SW-620 colon): 77.8 nM
TGI (SW-620 colon): > 100000 nM
GI50 (T-47D breast): 248 nM
TGI (T-47D breast): > 100000 nM
GI50 (TK-10 renal): 29300 nM
TGI (TK-10 renal): > 75900 nM
GI50 (U251 CNS): 230 nM
TGI (U251 CNS): > 62600 nM
TGI (UACC-257 melanoma): > 100000 nM
GI50 (UACC-62 melanoma): 107 nM
TGI (UACC-62 melanoma): > 100000 nM
GI50 (UO-31 renal): 350 nM
TGI (UO-31 renal): > 66500 nM
